Test results as given in patent publication US6894061B2, “Substituted dihydrophenanthridinesulfonamides” (Wyeth, priority 2002, dated 2005).
Where two headings read alike, the source gives them in different places.

Columns and labels:
IL-6 = IL-6 test procedure (IL-6 ELISA of media) in Ad5-wt-ERα infected HAECT-1 cells; format: cell-based, human; details: for IC50: read-out: Interleukin-6 IC50; for Emax: read-out: Interleukin-6 Efficacy (%)
Experimental: After four hours, cells were washed with EBM-BSA and incubated overnight in the same medium. Following overnight incubation, cells were washed with EBM-BSA and infected for 2 hours with 6 mL of a 1:10 dilution of Ad5-3x(NFκB).Luc virus (Adenovirus luciferase expression vector driven by 3 repeats of the MHC NFκb site 5′ to the thymidine kinase promoter) in EBM-BSA. After two hours, cells were washed and incubated at 34° C. for 1 hour. […] Control (no ER infection) cells were processed as above without Ad5-wt-hERα virus infection.
ERα infected HAECT-1 cells or control cells were thawed, diluted 42× in warm EBM-BSA, plated into 96-well plates at 0.1 mL/well and incubated for 4 hours at 34° C. Test compounds were added to the cells as 2× stocks in EBM-BSA containing 2 ng/mL IL-1β (R&D Systems) and the 96-well plates were returned to the incubator (34° C.). After 15-20 hours, 100 μL aliquots of media were removed from the cells and assayed for IL-6 content using a BioSource human IL-6 ELISA Kit. Cells were subsequently washed with 300 μL of Dulbecco's phosphate buffered saline and lysed in 50 μL of Cell Culture Lysis Reagent (Promega). Luciferase was determined on a Wallac Victor^2 Luminometer (Gaithersburg, Md.) using 10 μL of lysate and mixing with 100 μL of Promega Luciferase Assay reagent. Creatine kinase was determined from the rate of increase in A340 following addition of 100 μL of CK assay reagent (Sigma, cat. No 47-10) to the remainder of the cell lysate.
For IC50 and EC50 calculations, mean IL-6, luciferase or CK values versus log10 of the compound concentration were fitted to a four parameter logistic equation. The IC50/EC50 value, ‘Hill slope’, upper and lower limits of the curve were iteratively estimated.

creatine kinase = experiment: Creatine kinase (CK) test procedure in Ad5-wt-ERα infected HAECT-1 cells; format: cell-based, human
ER/NF-κB = ER/NF-κB luciferase reporter in Ad5-wt-ERα infected HAECT-1 cells; format: cell-based, human; details: Homo sapiens, HAECT1, IL-1β; for IC50: read-out: ER/NFκB IC50; for Emax: read-out: ER/NFκB Efficacy (%)*
[1] = Homo sapiens, HAECT1, Ad5-wt-ERα infected HAECT-1 cells, read-out: Creatin Kinase EC50
[2] = Homo sapiens, HAECT1, Ad5-wt-ERα infected HAECT-1 cells, read-out: Creatin Kinase Efficacy (%)
[3] = Ad5-wt-ERα infected HAECT-1 cells

| IC50 (IL-6; Homo sapiens, HAECT1, IL-1β) [nM] | EC50 (creatine kinase; Homo sapiens, HAECT1, read-out: Creatin Kinase EC50) [nM] | IC50 (ER/NF-κB) [nM] | EC50 (creatine kinase; [1]) [nM] | melting point [°C] | Compound | Emax (IL-6; Homo sapiens, HAECT1, IL-1β) [%] | Emax (creatine kinase; [2]) [%] | Emax (ER/NF-κB) [%] | Emax at 10 µM (creatine kinase; Homo sapiens, HAECT1, @10 μM, Ad5-wt-ERα infected HAECT-1 cells, read-out: Creatin Kinase Efficacy (%)) [%] | Interleukin-6 Efficacy (%) (IL-6; IL-1β) | IC50 (IL-6; IL-1β) [nM] | Creatin Kinase Efficacy (%) (creatine kinase; [3]) | EC50 (creatine kinase; Ad5-wt-ERα infected HAECT-1 cells, read-out: Creatin Kinase EC50) [nM] |
| --- | --- | --- | --- | --- | --- | --- | --- | --- | --- | --- | --- | --- | --- |
| ~1 | 5.8 | ~1 |  |  | C[C@]12CC[C@@H]3c4ccc(O)cc4CC[C@H]3[C@@H]1CC[C@@H]2O [Example E2, 17β-estradiol, reference compound] |  |  |  |  |  |  |  |  |
| 104 |  |  | 40 | 165.5 to 171 | CC1c2ccc(F)cc2-c2cc(F)ccc2N1S(=O)(=O)c1cccc(O)c1 (stereo not drawn) [Example 117, 3-[(2,9-Difluoro-6-methylphenanthridin-5(6H)-yl)sulfonyl]phenol] | 101 | 8 |  |  |  |  |  |  |
| 30 |  |  | 107 | 204 | CC1c2ccccc2-c2ccc(Cl)cc2N1S(=O)(=O)c1ccc(O)cc1 (stereo not drawn) [Example 121, 4-[(3-Chloro-6-methylphenanthridin-5(6H)-yl)sulfonyl]phenol] | 113 | 29 |  |  |  |  |  |  |
| 7 |  |  |  | 213.5 to 220 | C[C@H]1c2ccccc2-c2ccc(Cl)cc2N1S(=O)(=O)c1ccc(O)cc1 [Example 123, 4-{[(6S)-3-Chloro-6-methylphenanthridin-5(6H)-yl]sulfonyl}phenol] | 154 | 2 |  |  |  |  |  |  |
| 224 |  |  | 624 | 178.2 to 182 | C[C@@H]1c2ccccc2-c2ccc(Cl)cc2N1S(=O)(=O)c1ccc(O)cc1O [Example 124, 4-{[(6R)-3-Chloro-6-methylphenanthridin-5(6H)-yl]sulfonyl}benzene-1,3-diol] | 19 | 4 |  |  |  |  |  |  |
| 18 |  |  |  | 220.9 to 223 | C[C@@H]1c2ccccc2-c2ccc(Cl)cc2N1S(=O)(=O)c1cccc(O)c1 [Example 119, 3-{[(6R)-3-Chloro-6-methylphenanthridin-5(6H)-yl]sulfonyl}phenol] | 35 | 21 |  |  |  |  |  |  |
| 92 |  |  | 32 | 162 to 165 | CC1c2ccccc2-c2ccc(F)cc2N1S(=O)(=O)c1ccc(O)cc1 (stereo not drawn) [Example 105, 4-[(3-Fluoro-6-methylphenanthridin-5(6H)-yl)sulfonyl]phenol] | > 100 | 17 |  |  |  |  |  |  |
| 1330 |  |  | 110 |  | C[C@@H]1c2ccccc2-c2ccc(F)cc2N1S(=O)(=O)c1cccc(O)c1 [Example 107, 3-{[(6R)-3-Fluoro-6-methylphenanthridin-5(6H)-yl]sulfonyl}phenol] | 79 | 20 |  |  |  |  |  |  |

The remaining lines, values behind:

| Compound | IC50 (IL-6; Homo sapiens, HAECT1, IL-1β) [nM] | EC50 (creatine kinase; Homo sapiens, HAECT1, read-out: Creatin Kinase EC50) [nM] | IC50 (ER/NF-κB) [nM] | EC50 (creatine kinase; [1]) [nM] | melting point [°C] | Emax (IL-6; Homo sapiens, HAECT1, IL-1β) [%] | Emax (creatine kinase; [2]) [%] | Emax (ER/NF-κB) [%] | Emax at 10 µM (creatine kinase; Homo sapiens, HAECT1, @10 μM, Ad5-wt-ERα infected HAECT-1 cells, read-out: Creatin Kinase Efficacy (%)) [%] | Interleukin-6 Efficacy (%) (IL-6; IL-1β) | IC50 (IL-6; IL-1β) [nM] | Creatin Kinase Efficacy (%) (creatine kinase; [3]) | EC50 (creatine kinase; Ad5-wt-ERα infected HAECT-1 cells, read-out: Creatin Kinase EC50) [nM] |
| --- | --- | --- | --- | --- | --- | --- | --- | --- | --- | --- | --- | --- | --- |
| CC1c2ccccc2-c2cc(F)ccc2N1S(=O)(=O)c1ccc(O)cc1 (stereo not drawn) [Example 112, 4-[(2-Fluoro-6-methylphenanthridin-5(6H)-yl)sulfonyl]phenol] | 175 |  |  | 337 | 216 to 218 | 100 | 1 |  |  |  |  |  |  |
| CC1c2ccccc2-c2cc(F)ccc2N1S(=O)(=O)c1cccc(O)c1 (stereo not drawn) [Example 113, 3-[(2-Fluoro-6-methylphenanthridin-5(6H)-yl)sulfonyl]phenol] | 173 |  |  | 284 | 195 to 196 | 100 | 40 |  |  |  |  |  |  |
| C[C@H]1c2ccccc2-c2ccc(F)cc2N1S(=O)(=O)c1ccc(O)cc1O [Example 111, 4-{[(6S)-3-Fluoro-6-methylphenanthridin-5(6H)-yl]sulfonyl}benzene-1,3-diol] | 22 |  |  | 102 | 151 to 153 | 114 | 33 |  |  |  |  |  |  |
| CC1c2ccccc2-c2ccc(Cl)cc2N1S(=O)(=O)c1cccc(O)c1 (stereo not drawn) [Example 118, 3-[(3-Chloro-6-methylphenanthridin-5(6H)-yl)sulfonyl]phenol] | 96 |  |  |  | 215 | 103 | -16 |  |  |  |  |  |  |
| C[C@@H]1c2ccccc2-c2ccc(F)cc2N1S(=O)(=O)c1ccc(O)cc1O [Example 110, 4-{[(6R)-3-Fluoro-6-methylphenanthridin-5(6H)-yl]sulfonyl}benzene-1,3-diol] | 2340 |  |  | 954 | 150 to 152 | 38 | -7 |  |  |  |  |  |  |
| CC1c2ccc(F)cc2-c2cc(F)ccc2N1S(=O)(=O)c1ccc(O)cc1 (stereo not drawn) [Example 116, 4-[(2,9-Difluoro-6-methylphenanthridin-5(6H)-yl)sulfonyl]phenol] | 130 |  |  | 326 | 194 to 196 | 99 | 23 |  |  |  |  |  |  |
| CC1c2ccc(F)cc2-c2ccc(F)cc2N1S(=O)(=O)c1cccc(O)c1 (stereo not drawn) [Example 115, 3-[(3,9-Difluoro-6-methylphenanthridin-5(6H)-yl)sulfonyl]phenol] | 81 |  |  | 102 | 167.2 to 173 | 102 | 16 |  |  |  |  |  |  |
| C[C@H]1c2cc(F)ccc2-c2ccccc2N1S(=O)(=O)c1ccc(OS(N)(=O)=O)cc1 [Example 126, 4-{[(6S)-8-Fluoro-6-methylphenanthridin-5(6H)-yl]sulfonyl}phenyl sulfamate] | 40 |  |  | 661 | 166.5 to 167 | 99 | 61 |  |  |  |  |  |  |
| C[C@H]1c2cc(F)ccc2-c2ccc(F)cc2N1S(=O)(=O)c1ccc(O)cc1O (single isomer, unassigned) [Example 103] | 47 |  |  | 85 |  | 141 | 9 |  |  |  |  |  |  |
| CC1c2ccccc2-c2ccc(F)cc2N1S(=O)(=O)c1cccc(O)c1 (stereo not drawn) [Example 106, 3-[(3-Fluoro-6-methylphenanthridin-5(6H)-yl)sulfonyl]phenol] | 43 |  |  | 1420 | 164 to 167 | 104 | 22 |  |  |  |  |  |  |
| C[C@H]1c2cc(F)ccc2-c2ccccc2N1S(=O)(=O)c1ccc(O)cc1 [Example 33, 4-{[(S)-8-Fluoro-6-methylphenanthridin-5(6H)-yl]sulfonyl}phenol] | 23.4 |  | 33 | 91 | 193 | 108 | 21 | 99 |  |  |  |  |  |
| C[C@@H]1c2cc(F)ccc2-c2ccccc2N1S(=O)(=O)c1ccc(O)cc1 [Example 34, 4-{[(R)-8-Fluoro-6-methylphenanthridin-5(6H)-yl]sulfonyl}phenol] |  |  | 2840 |  | 193 | 35 |  | 89 | < 35 |  |  |  |  |
| C[C@H]1c2ccccc2-c2ccc(Cl)cc2N1S(=O)(=O)c1ccc(O)cc1O [Example 125, 4-{[(6S)-3-Chlro-6-methylphenanthridin-5(6H)-yl]sulfonyl}b nzne-1,3-diol] |  |  |  |  |  |  |  |  |  | 94 | 54 | 22 |  |
| C[C@@H]1c2ccccc2-c2ccc(Cl)cc2N1S(=O)(=O)c1ccc(O)cc1 [Example 122, 4-{[(6R)-3-Chloro-6-methylphenanthridin-5(6)-yl]sulfonyl}phenol] |  |  |  |  |  |  |  |  |  | 37 | 464 | 14 | 805 |
